Assay: xn = mol fraction of the nth substance listed
Conditions: 101.3 kPa

CCCCCC[n+]1ccn(C)c1.F[B-](F)(F)F + Nc1ccccc1
speed of sound [m/s]
Conditions | x1 = 0.0989 | x1 = 0.1792 | x1 = 0.2896 | x1 = 0.3924 | x1 = 0.5062 | x1 = 0.6042 | x1 = 0.6986 | x1 = 0.7974 | x1 = 0.8962
293.15 K | 1653 | – | 1618 | 1598 | 1579 | 1565 | – | – | 1539
298.15 K | 1636 | 1623 | 1603 | 1583 | – | – | 1541 | 1532 | 1526
303.15 K | – | 1606 | 1586 | 1568 | 1550 | 1537 | – | 1520 | 1513
308.15 K | 1601 | 1589 | 1571 | 1553 | 1536 | 1524 | 1515 | 1507 | 1501
313.15 K | – | 1572 | 1555 | 1539 | 1522 | 1510 | 1502 | 1494 | 1489
318.15 K | 1565 | 1556 | 1540 | 1525 | 1509 | – | – | 1482 | 1476
323.15 K | 1547 | – | 1525 | – | 1496 | 1485 | 1477 | 1470 | 1464

Nc1ccccc1 + CCCCCCCCn1cc[n+](C)c1.F[B-](F)(F)F
x2 = 0
Conditions | speed of sound [m/s]
293.15 K | 1657
298.15 K | 1638
303.15 K | 1618
308.15 K | 1599
318.15 K | 1561
323.15 K | 1542

Nc1ccccc1 + CCCCCC[n+]1ccn(C)c1.F[B-](F)(F)F
x2 = 0
Conditions | speed of sound [m/s]
293.15 K | 1657
298.15 K | 1638
303.15 K | 1618
308.15 K | 1599

Nc1ccccc1 + CCCC[n+]1ccn(C)c1.F[B-](F)(F)F
speed of sound [m/s]
Conditions | x2 = 0 | x2 = 0.0925 | x2 = 0.2022 | x2 = 0.2995 | x2 = 0.4002 | x2 = 0.4982 | x2 = 0.5953 | x2 = 0.6935 | x2 = 0.7904 | x2 = 0.9191
293.15 K | – | 1656 | – | 1645 | 1634 | – | 1613 | 1603 | – | 1583
298.15 K | 1638 | – | 1636 | 1630 | 1619 | – | 1600 | 1590 | 1581 | 1571
303.15 K | – | 1623 | 1619 | 1614 | 1604 | 1595 | 1587 | – | – | –
308.15 K | 1599 | 1606 | 1603 | – | 1590 | – | 1573 | 1565 | 1557 | 1548
313.15 K | – | 1588 | 1587 | 1582 | – | 1568 | 1560 | 1553 | 1546 | 1537
318.15 K | 1561 | 1570 | 1571 | 1566 | 1561 | – | 1548 | – | 1534 | 1526
323.15 K | – | 1553 | 1555 | – | – | 1541 | – | 1529 | 1523 | 1516

CCCCCCCCn1cc[n+](C)c1.F[B-](F)(F)F + Nc1ccccc1
speed of sound [m/s]
Conditions | x1 = 0.0996 | x1 = 0.1904 | x1 = 0.2853 | x1 = 0.3789 | x1 = 0.4955 | x1 = 0.5783 | x1 = 0.6966 | x1 = 0.7938 | x1 = 0.8958
293.15 K | 1640 | 1619 | 1595 | 1574 | 1553 | 1540 | 1526 | 1516 | –
298.15 K | – | – | 1580 | 1560 | 1539 | 1526 | 1512 | – | 1494
303.15 K | – | – | 1564 | 1545 | 1525 | 1513 | 1499 | 1488 | –
308.15 K | 1589 | – | 1549 | 1530 | 1511 | – | 1485 | 1476 | 1467
313.15 K | – | 1554 | 1534 | – | 1496 | 1485 | 1472 | 1463 | 1454
318.15 K | 1554 | 1538 | 1518 | – | 1483 | 1472 | 1459 | 1450 | 1441
323.15 K | – | – | 1502 | 1486 | 1469 | 1458 | 1446 | – | 1429
